Measurements: ChEMBL document CHEMBL1150462, “Synthesis of 2-O-substituted -D-Gal-(14)--D-GlcNAc-1-0-Bn as specific acceptors for -L-(13) fucosyltransferases” (1992)

What was measured:
[1] = Kinetic constant of the enzyme activity was determined by incorporation of [14C]- fucose as a function of acceptor concentration
Homo sapiens [2] = organism: Homo sapiens; assay: (§1) Percentage of fucosyltransferase accepted by the compound in alpha-L-(1-3) fucosyltransferase assay using [14C]fucose as a ligand; type: functional
Homo sapiens [3] = organism: Homo sapiens; assay: Relative activity was determined at 0.3 mM of compound in ovarian cancer sera in alpha-L-(1-3) fucosyltransferase assay using [14C]-fucose as a ligand; type: functional
Ovarian carcinoma cell [4] = assay: Relative activity was determined at 0.3 mM of compound in ovarian-tumor extract in alpha-L-(1-3) fucosyltransferase assay using [14C]fucose as a ligand; type: functional, Homo sapiens
Ovarian carcinoma cell [5] = assay: as §1; type: functional, Homo sapiens
Homo sapiens [6] = organism: Homo sapiens; assay: Percentage of fucosyltransferase accepted by the compound in alpha-L-(1-3) fucosyltransferase assay using [14C]fucose as a ligand;=; type: functional
Ovarian carcinoma cell [7] = assay: Percentage of fucosyltransferase accepted by the compound in alpha-L-(1-3) fucosyltransferase assay using [14C]-fucose as a ligand; type: functional, Homo sapiens

Row | Compound | Km [1] [µM] | Relative activity (Homo sapiens [2]) [%] | Relative activity (Homo sapiens [3]) [c.p.m.] | Relative activity (Ovarian carcinoma cell [4]) [c.p.m.] | Relative activity (Ovarian carcinoma cell [5]) [%] | Relative activity (Homo sapiens [6]) [%] | Relative activity (Ovarian carcinoma cell [7]) [%]
1 | CO[C@H]1[C@H](O[C@H]2[C@H](O)[C@@H](NC(C)=O)[C@H](OCc3ccccc3)O[C@@H]2CO)O[C@H](CO)[C@H](O)[C@@H]1O | 440 | 308 | 5330 | 14924 | 375 |  | 
2 | CC(=O)N[C@H]1[C@H](OCc2ccccc2)O[C@H](CO)[C@@H](O[C@@H]2O[C@H](CO)[C@H](O)[C@H](O)[C@H]2O[C@@H]2O[C@@H](C)[C@@H](O)[C@@H](O)[C@@H]2O)[C@@H]1O | 260 |  | 7350 | 42580 |  | 168 | 233
3 | CC(=O)N[C@@H]1[C@@H](O)[C@H](O[C@@H]2O[C@H](CO)[C@H](O)[C@H](O)[C@H]2O[C@@H]2O[C@@H](C)[C@@H](O)[C@@H](O)[C@@H]2O)[C@@H](CO)O[C@H]1O |  | 100 | 4380 | 18291 | 100 |  | 
4 | CO[C@H]1[C@H](O[C@H]2[C@H](O)[C@@H](NC(C)=O)C(O)O[C@@H]2CO)O[C@H](CO)[C@H](O)[C@@H]1O (stereo partly specified) | 1330 | 100 | 1730 | 3977 |  |  | 100
5 | CC(=O)N[C@@H]1[C@@H](O)[C@H](O[C@@H]2O[C@H](CO)[C@H](O)[C@H](O)[C@H]2O)[C@@H](CO)O[C@H]1O |  |  | 1620 | 5024 |  |  | 
